Assay results reported in patent US20260014118A1, “VITAMINS FOR USE IN IMPROVING GUT HEALTH” (DSM IP ASSETS B.V., priority 2022, published 2026).

System: Bifidobacterium animalis ssp. lactis DSM 32269
Experiment: Short-term batch-fermentation (colonic incubation, M-SHIME colon model) with fecal inocula of six human donors; qPCR on groEL gene
Format: cell-based
Conditions: 48 h colonic incubation; for levels of Bifidobacterium animalis ssp. lactis (DSM 32269 specific groEL gene copies) in the lumen environment, as compared to the respective control: average of six donors, co-supplemented with probiotic 1*10^9 CFU, vitamin B2 0.01667 g/L, vitamin C 0.333 g/L, vitamin D3 0.000025 g/L
Protocol: A short-term batch-fermentation experiment was carried out by ProDigest, consisting of a colonic incubation of a representative dose of a selected vitamin with a representative bacterial inoculum under simulated conditions for the proximal large intestine. In the current experiment, the bacterial inocula were derived from fresh fecal samples of six different healthy adult donors. Incubations were performed as described previously (Van den Abbeele, P.; Taminiau, B.; Pinheiro, I.; Duysburgh, C.; Jacobs, H.; Pijls, L.; Marzorati, M. Arabinoxylo-Oligosaccharides and Inulin Impact Inter-Individual Variation on Microbial Metabolism and Composition, Which Immunomodulates Human Cells. J. Agric. Food Chem. 2018, 66, 1121-1130). At the start of the short-term colonic incubation, fresh fecal material from six healthy human donors was collected and upon preparation of an anaerobic fecal slurry, this slurry was inoculated at 10 vol % in a SHIME nutritional medium containing basal nutrients containing 3.5 g/L K2HPO4, 10.9 g/L KH2PO4, 2 g/L NaHCO3(Chem-lab NV, Zedelgem, Belgium), 2 g/L yeast extract, 2 g/L peptone (Oxoid, Aalst, Belgium), 1 g/L mucin (Carl Roth, Karlsruhe, Germany), 0.5 g/L L-cysteine and 2 mL/L Tween80 (Sigma-Aldrich, Bornem, Belgium). All test ingredients (i.e., probiotic strain, vitamin B2, C, or D3) were also added to the SHIME medium. Furthermore, M-SHIME® technology was incorporated in the current experiment by adding mucin-covered microcosms (modeling the mucus of the colon) to the incubations as described previously (Van den Abbeele, P., et al. (2013). Butyrate-producing Clostridium cluster XIVa species specifically colonize mucins in an in vitro gut model. The ISME Journal 7 (5), 949-961). Incubations were performed for 48 h, at 37° C., under shaking (90 rpm) and anaerobic conditions.
In this study, the Bifidobacterium animalis ssp. lactis BB-12 equivalent Bifidobacterium animalis ssp. lactis DSM 32269 (Biocare Copenhagen) was added to the colon model containing the donor samples, alone or in combination with vitamin B2, C, or D (see Table 1). After 48 h of incubation, the abundance of the added strain was analyzed using primers that are specific for Bifidobacterium animalis ssp. lactis BB-12/Bifidobacterium animalis ssp. lactis DSM 32269. Experiments were performed in single repetition.
The Bifidobacterium animalis ssp. lactis BB-12 equivalent strain Bifidobacterium animalis ssp. lactis DSM 32269 was added to the SHIME medium as an overnight grown culture at a concentration of 1*10^9 CFU. The probiotic strain was either supplemented alone or in combination with vitamin B2, vitamin C or vitamin D3 (DSM). Vitamin B2, C, and D3 was added at a concentration of 0.01667 g/L, 0.333 g/L and 0.000025 g/L, respectively, which translates into a 10 mg, 200 mg, and […] dose, respectively, given that the colon volume is about 600 ml.
qPCR was performed on groEL gene (NCBI reference CP003497) to monitor the level of the supplemented Bifidobacterium animalis ssp. lactis DSM 32269 strain within the gut microbiome, as described previously (Junick et al. (2012), Quantification of Human Fecal Bifidobacterium Species by Use of Quantitative Real-Time PCR Analysis Targeting the groEL Gene). Samples were analyzed from the lumen and mucus environment following 48 h of incubation.
Statistical analysis was performed to investigate the average effect of the test products. For this purpose, the average over the six donors was calculated for each endpoint. […]

[1] = control = probiotic only, p<0.05

Structure (SMILES)	levels of Bifidobacterium animalis ssp. lactis (DSM 32269 specific groEL gene copies) in the lumen environment, as compared to the respective control [1]	levels of Bifidobacterium animalis ssp. lactis in the mucus environment, as compared to the respective control (mucus, vitamin B2 0.01667 g/L co-supplemented with probiotic, control = probiotic only, p<0.05)	copies of the Bifidobacterium animalis ssp. lactis DSM 32269 specific groEL gene in the mucus environment, relative to control (mucus, vitamin B2 0.01667 g/L co-supplemented with probiotic, versus probiotic only)
O=C1O[C@H]([C@@H](O)CO)C(O)=C1O [vitamin C, L-ascorbic acid]	significantly increased		
Cc1cc2nc3c(=O)[nH]c(=O)nc-3n(C[C@H](O)[C@H](O)[C@H](O)CO)c2cc1C [vitamin B2, riboflavin]	significantly increased	significantly increased	around 6 times
C=C1CC[C@H](O)C/C1=C/C=C1\CCC[C@]2(C)[C@@H]([C@H](C)CCCC(C)C)CC[C@@H]12 [vitamin D, cholecalciferol]	significantly increased		
